This is an account of results in patent US11767313B2, “Compounds as nuclear transport modulators and uses thereof” (XWPHARMA LTD., priority 2018, dated 2023).

For data set [1], the system named is U87MG. In words: CellTiter-Glo cell proliferation assay, U87MG. The format is cell-based, human. As to conditions: U87MG, Table 12; for IC50: Homo sapiens, U-87 MG; for Bottom / Hill Slope / Top: curve fit. How it is done:
(§1) CellTiter-Glo® Luminescent Cell Viability assay (with Promega CellTiter 96® Luminescent CellTiter-Glo® kit) was used to study the proliferation inhibition by test compounds. Compounds were resuspended in DMSO to make a 25 mM stock suspension. Cells of cancer cell lines or normal tissues were seeded in 96-well plates at 1,500 to 5,000 cells/well overnight. Compounds were 2- or 3-fold diluted serially to obtain 10 concentrations. Then, the drugs were added to the cell wells by Bravo (Agilent) and incubated for 72 hours. The cells were lysed by adding CellTiter-Glo® Reagent (per manufacturer's instructions) and subsequently, the luminescence was read using EnVision® (PerkinElmer).
(§2) The percent of growth was calculated as follows. DMSO-treated cells were employed as vehicle control (High control, HC) and culture medium alone was employed as background (Low control, EC). % growth=100×(Lum sample−Lum EC)/(Lum HC−Lum EC). The ICso was calculated by concentration-response curve fitting using Graphpad Prism.
(§3) Hematological cancer cell lines tested included OCI-AML3, MV-4-11, KG-1, Kasumi-1, K562, THP-1; solid cancer cell lines tested included U87MG, U251, T98G, LN229, A172, H460, H2009, A549; normal cell lines tested included HCN2 and 3T3-L1. […] However, they were not toxic to in vitro cultured normal cells.
Background: In ATP-based viability assays light output follows the ATP content of the culture.

Data set [2] relates to T98G. The data set is described as follows: CellTiter-Glo cell proliferation assay, T98G. The format is cell-based. Particulars: Table 11, read-out: Absolute IC50 (μM) T98G. How it is done:
as §1, §2, §3

The subject of data set [3] is U251. The data set is described as follows: CellTiter-Glo cell proliferation assay, U251. The format is cell-based. As to conditions: Table 11, read-out: Absolute IC50 (μM) U251. How it is done: as §1, §2, §3
The test system of data set [4] is LN-229. The data set is described as follows: CellTiter-Glo cell proliferation assay, LN-229. The format is cell-based. As to conditions: Table 11, read-out: Absolute IC50 (μM) LN-229. How it is done: as §1, §2, §3
Data set [5] has as its target T1, XPO1 (Homo sapiens, UniProt O14980). In words: REV-GFP translocation assay in U2OS cells. Also on record: endogenous in cells; host or cells: U2OS cells stably expressing REV-GFP (clones from HD Biosciences). Particulars: for EC50: 1 h. The format is cell-based. How it is done:
LTD in China, and cells were cultured with growth medium. […] The highest Leptomycin B (LMB) concentration was set to 50 nM and serially diluted as the positive control, while the highest concentrations of other compounds were set to 10 μM. The cells treated with various drugs or DMSO, were incubated at 37° C. and 5% CO2 for 1 h. Then, cells were fixed with 4% formaldehyde for 15 min at room temperature. The cells were washed and stained with 100 μL Hoechst 33342 working solution for 10 min at room temperature in dark, after which the cell fluorescence was imaged with the High-Content Imaging System, ImageXpress® (Molecular Devices) using the 20× objective. The filters were set for Hoechst (350/461 nm) and GFP/FITC (488/509 nm) (wavelength for excitation and emission maxima). The % effect of REV nuclear translocation was calculated with the following formula: % effect=([…]- signals from testing compounds; ILMB-signals of 50 nM LMB group; ICTRL-signals of vehicle control group.

Data set [6] addresses T1, XPO1. The data set is described as follows: Compound washout assay in REV-GFP cells. How it is done: In order to evaluate the duration of XPO1 inhibition by test compounds on XPO1 protein after washout, washout assay was performed using REV-GFP cells. The test compounds and positive control were added to the cell well, and the plate was incubated the at 37° C. and 5% CO2 for 1 h. The drug-containing media were removed, the cells were washed, and the fresh media were added. The cells were imagined at the specified time points 0, 4, 24, 48, 72, and 96 hours to evaluate the inhibition of REV nuclear export. […] 4A. […] 4B. […] 4C.

Where two headings read alike, the source gives them in different places.

T1 sequence (O14980 whole entry): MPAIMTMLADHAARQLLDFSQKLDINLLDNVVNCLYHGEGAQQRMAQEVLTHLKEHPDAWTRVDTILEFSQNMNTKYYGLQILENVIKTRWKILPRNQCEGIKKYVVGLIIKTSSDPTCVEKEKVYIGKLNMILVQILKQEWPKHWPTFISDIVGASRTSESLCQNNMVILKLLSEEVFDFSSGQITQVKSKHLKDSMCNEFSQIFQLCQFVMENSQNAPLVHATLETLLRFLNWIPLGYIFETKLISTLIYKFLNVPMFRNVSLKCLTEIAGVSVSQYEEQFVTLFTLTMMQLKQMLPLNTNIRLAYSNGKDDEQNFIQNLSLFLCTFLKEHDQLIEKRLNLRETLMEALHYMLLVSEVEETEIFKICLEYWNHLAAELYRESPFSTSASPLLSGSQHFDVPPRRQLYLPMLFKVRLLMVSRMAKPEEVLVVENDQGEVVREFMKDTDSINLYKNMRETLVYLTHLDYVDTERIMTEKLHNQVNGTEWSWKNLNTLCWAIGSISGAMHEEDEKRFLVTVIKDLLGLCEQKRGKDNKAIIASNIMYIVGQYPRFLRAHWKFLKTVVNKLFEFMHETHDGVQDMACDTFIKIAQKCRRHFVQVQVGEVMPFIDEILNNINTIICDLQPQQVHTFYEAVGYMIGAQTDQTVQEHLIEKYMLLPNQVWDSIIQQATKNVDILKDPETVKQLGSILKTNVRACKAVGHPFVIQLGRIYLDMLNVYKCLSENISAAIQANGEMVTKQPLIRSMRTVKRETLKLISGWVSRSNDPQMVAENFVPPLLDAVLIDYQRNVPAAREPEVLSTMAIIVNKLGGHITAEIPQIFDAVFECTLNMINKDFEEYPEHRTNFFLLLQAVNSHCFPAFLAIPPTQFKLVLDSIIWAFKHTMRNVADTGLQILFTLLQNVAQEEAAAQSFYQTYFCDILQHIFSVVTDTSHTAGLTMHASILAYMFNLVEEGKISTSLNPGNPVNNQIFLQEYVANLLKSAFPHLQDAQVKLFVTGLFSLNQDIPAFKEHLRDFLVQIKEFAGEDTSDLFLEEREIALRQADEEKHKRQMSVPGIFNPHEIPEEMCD

Broadly, the IC50 is the concentration at which inhibition is half-maximal. Take `O=C(/C=C\n1cnc(-c2cc(C(F)(F)F)cc(S(F)(F)(F)(F)F)c2)n1)NNC(=O)C1CC1` [Compound VII, (Z)—N′-(3-(3-(3-(Pentafluorosulfaneyl)-5-(trifluoromethyl)phenyl)-1H-1,2,4-triazol-1-yl)acryloyl)cyclopropanecarbohydrazide]: the IC50 in data set [1] (read-out: Relative IC50) came out at 100 nM. Moreover, in data set [1], the “Max % Inhibition” value came out at 49.0%, the Bottom is recorded as −6.4, the “Hill Slope” value is listed as 1.2 and the Top stood at 45.9.

With `CCCC(=O)NNC(=O)/C=C\n1cnc(-c2cc(C(F)(F)F)cc(S(F)(F)(F)(F)F)c2)n1` [Compound IX, (Z)—N′-(3-(3-(3-(Pentafluorosulfaneyl)-5-(trifluoromethyl)phenyl)-1H-1,2,4-triazol-1-yl)acryloyl)butyrohydrazide], in data set [1] (read-out: Relative IC50), the IC50 was 100 nM. Also, in data set [1], the “Max % Inhibition” value came out at 48.3%, the Bottom is given as −4.6, the “Hill Slope” value is reported as 1.6 and the Top is on record as 43.6.

`N.N.[Cl][Pt][Cl]` [Cisplatin, reference compound]: the IC50 worked out at 12.3 µM in data set [2], 6 µM in data set [3] and 13 µM in data set [4].

In the case of `CC1(C(=O)NNC(=O)/C=C\n2cnc(-c3cc(C(F)(F)F)cc(S(F)(F)(F)(F)F)c3)n2)CC1` [Compound XI, (Z)-1-Methyl-N′-(3-(3-(3-(pentafluorosulfaneyl)-5-(trifluoromethyl)phenyl)-1H-1,2,4-triazol-1-yl)acryloyl)cyclopropane-1-carbohydrazide], in data set [1] (read-out: Relative IC50), the IC50 came out at 200 nM. Also, in data set [1], the “Max % Inhibition” value amounted to 48.5%, the Bottom is recorded as −7.6, the “Hill Slope” value is 1.8 and the Top is 44.6.

For the compound `O=C(/C=C\n1cnc(-c2cc(C(F)(F)F)cc(S(F)(F)(F)(F)F)c2)n1)NNC(=O)C1CCC1` [Compound X, (Z)—N′-(3-(3-(3-(Pentafluorosulfaneyl)-5-(trifluoromethyl)phenyl)-1H-1,2,4-triazol-1-yl)acryloyl)cyclobutanecarbohydrazide], the IC50 in data set [1] (read-out: Absolute IC50) was 9400 nM. Also, the IC50 in data set [1] (read-out: Relative IC50) stood at 200 nM. In addition, in data set [1], the “Max % Inhibition” value worked out at 58.3%, the Bottom is −15.9, the “Hill Slope” value is listed as 0.5 and the Top is 59.4.

In the case of `CC(C)C(=O)NNC(=O)/C=C\n1cnc(-c2cc(C(F)(F)F)cc(S(F)(F)(F)(F)F)c2)n1` [Compound VIII, (Z)—N′-Isobutyryl-3-(3-(3-(pentafluorosulfaneyl)-5-(trifluoromethyl)phenyl)-1H-1,2,4-triazol-1-yl)acrylohydrazide], the IC50 in data set [1] (read-out: Relative IC50) is 100 nM. Also, in data set [1], the “Max % Inhibition” value came out at 44.0%, the Bottom is listed as −10.6, the “Hill Slope” value is given as 1.8 and the Top is recorded as 38.8.

`CC(CO)(CCl)C(=O)NNC(=O)/C=C\n1cnc(-c2cc(C(F)(F)F)cc(S(F)(F)(F)(F)F)c2)n1` (centres unmarked) [Compound XII, (Z)—N′-(3-Chloro-2-(hydroxymethyl)-2-methylpropanoyl)-3-(3-(3-(pentafluorosulfaneyl)-5-(trifluoromethyl)phenyl)-1H-1,2,4-triazol-1-yl)acrylohydrazide]: the IC50 in data set [1] (read-out: Absolute IC50) was determined as 18500 nM. Besides, the IC50 in data set [1] (read-out: Relative IC50) was found to be 600 nM. Further, in data set [1], the “Max % Inhibition” value turned out to be 53.9%, the Bottom is listed as −5.5, the “Hill Slope” value is listed as 1.2 and the Top came to 50.9.

Turning to `CC(C)(C)C(=O)NNC(=O)/C=C\n1cnc(-c2cc(C(F)(F)F)cc(C(F)(F)F)c2)n1` [KPT-350, (Z)-3-(3-(3,5-bis(trifluoromethyl)phenyl)-1H-1,2,4-triazol-1-yl)-N′-pivaloylacrylohydrazide, reference compound], the IC50 in data set [1] (read-out: Absolute IC50) was determined as 10000 nM. For the same compound, the IC50 in data set [1] (read-out: Relative IC50) is 300 nM. Also, in data set [1], the “Max % Inhibition” value was 49.4%, the Bottom is recorded as −13.2, the “Hill Slope” value was found to be 0.8 and the Top amounted to 53.0.

Take `CCC(=C/[C@H](C)C/C=C/C(C)=C/[C@@H](C)C(=O)[C@@H](C)[C@H](O)[C@@H](C)C/C(C)=C/C(=O)O)/C=C/[C@@H]1OC(=O)C=C[C@@H]1C` [LMB, Leptomycin B, reference compound]: the EC50 in data set [5] (Rev-GFP-U2OS cells, FIG. 1B, read-out: EC50 in the Rev redistribution) turned out to be 0.11 nM. Also, the “sustained retention of REV protein in the nucleus post washout” value in data set [6] (50 nM, 1 h treatment then washout) was “up to 24 hours”. In addition, the “effect on retention of REV protein in the nucleus” value in data set [6] (50 nM, 72 hours post washout) came out at 30%. Moreover, the “toxicity / cell number compared to the control” value in data set [6] (washout assay) is on record as “showed toxicity”.

On to `O=C(/C=C\n1cnc(-c2cc(C(F)(F)F)cc(S(F)(F)(F)(F)F)c2)n1)NNc1nccs1` [Compound VI, (Z)-3-(3-(3-(Pentafluorosulfaneyl)-5-(trifluoromethyl)phenyl)-1H-1,2,4-triazol-1-yl)-N′-(thiazol-2-yl)acrylohydrazide], for which the IC50 in data set [2] (Homo sapiens, T98G) is 2.6 µM; in data set [5] (Table 10, first (or only) value of the cell), 25.2 nM; in data set [3] (Homo sapiens, U-251), 3.8 µM; in data set [4] (Homo sapiens, LN-229), 1.7 µM. Moreover, the EC50 in data set [5] (REV-EGFP U2OS cells, Table 2, read-out: Rev-GFP/EC50) was 25.2 nM.
